Assay results: patent US20240173456A1, “THERAPEUTIC COMPOSITIONS FOR WOUND TREATMENT” (GlycoSurf, Inc., priority 2022, published 2024)

Experiments:
[1] = tested on: neonatal human dermal fibroblast (hDFn) cells; test: Cellular migration assay (scratch, mock wound), with or without uranyl nitrate (depleted uranium) exposure; assay type: cell-based
Protocol: Preparation of Depleted Uranium Solution. Approximately 0.005 g of uranyl nitrate (UN) crystals, purchased from American Scientific were weighed and solubilized in 40 mL of Dulbecco's modified eagle medium (DMEM) containing 10% fetal bovine serum (FBS) (DMEM complete) from Gibco® to create an initial working stock solution. Uranyl nitrate stock underwent 60 seconds of pipette mixing to confirm proper disintegration prior to vacuum sterilization using a 0.22 μm filter. Molecular weight was used to calculate the appropriate starting molarity before utilizing weight-volume concentrations to obtain the following experimental dilutions: 0.1 μM, 0.2 μM, 1.0 μM, 2.0 μM, 10 μM, 20 μM made from the sterile-filtered stock solution.
Cell Culture of Neonatal Human Dermal Fibroblasts (hDFn). Passage one neonatal human dermal fibroblast (hDFn) cells were purchased from Cell Applications, Inc. (P1, lot #1734). The hDFn cells were incubated at 37° C., 5% CO2, and passaged using a T-75 tissue culture flask from Corning, completing media changes every 48 hours until 90% confluency was met. Cells were subcultured at a density of 10×10^5 cells/mL, frozen in DMEM containing 10% DMSO, and stored at −80° C. for 24 hours before being placed in liquid nitrogen vapor phase for long-term preservation. The subsequent process was repeated until passage 4 isolates were frozen down.
Rhamnolipid Solution. About 0.0125 g of rhamnolipids (Rha-C10-C10) from Glycosurf were weighed and diluted in 50 mL of 1× phosphate-buffered saline (PBS) to obtain a 200 μM rhamnolipid stock solution. The solution was heated prior to being vortexed for maximum dissolution and sterilized through a vacuum using a 0.22 μm filter. The molarity of rhamnolipid stock solution was found using actual mass ([…]) and molecular weight to calculate experiment dilutions of 6.25 μM, 50 μM, and 100 μM.
Cellular Migration Assay. Human neonatal dermal fibroblasts (hDFn) passage 4, were seeded into a T-75 flask at 10×10^5 cells/mL density and grown in a standing incubator at 37° C., 5% CO2. Once 90% confluence was reached, hDFn were subcultured into 12-well plates, and respective UN treatments with or without rhamnolipids were added. After 24 hours, contents were removed, and the monolayer of fibroblasts was scratched vertically using a sterile pipet tip creating the mock wound (FIG. 1). Wells were then washed twice with Hanks' Balanced Salt Solution (HBSS). Respective treatments were added back into wells and cellular migration rates were monitored and imaged over time (0 hours, 12 hours, and 24 hours). Percent closure rates were collected using MATLAB®.
(§1) Statistical Analysis. Statistically significant differences were determined using GraphPad Prism. The results of the cellular migration assay were analyzed with a one-way ANOVA and Tukey post hoc evaluation. The PBCQ assay was analyzed using a one-way ANOVA and Tukey post hoc evaluation. For all experiments, a p-value<0.05 was considered statistically significant in this study.

[2] = tested on: hDFn cells; test: PrestoBlue assay, metabolic activity; assay type: cell-based, human; settings: vs control
Protocol: (§2) PrestoBlue™ and CyQUANT™ Direct Assay. PrestoBlue™ and CyQuant™ (PBCQ) direct confirmation assay (from ThermoFisher®) for cell viability was used to assess the biocompatibility of hDFn cells in DMEM complete media with varying concentrations of rhamnolipids. Passage 5 hDFn cells were seeded at 11,200 cells/mL density into black wall, clear bottom 96-well tissue culture plates. The cells were placed inside the standing incubator at 37° C. and 5% CO2 until reaching 70-90% confluence. […] The plate layout included blank wells containing DMEM complete media and the corresponding rhamnolipid concentrations. Following 24 hours, 100 μL was removed from each well and replaced with 10 μL of the PrestoBlue reagent. The plates were then incubated for 20 minutes at 37° C. and 5% CO2 prior to being placed in the Biotek® Synergy HT fluorescence microplate reader at 590 nm with a gain value of 35. Afterward, 100 μL of the CyQuant reagent composition was added to all wells and incubated for 60 minutes. The plates were read using the same microplate reader at 528 nm with a gain of 70. The relative fluorescence units (RFU) were produced for all wells, correlating with the metabolic output per unit of DNA.
as §1
(§3) The control scaffold, the SEM image of which is shown in FIG. 5A, was not impregnated with rhamnolipids, or had hDFn cells seeded onto it. In particular, the observable porosity is not structurally different in FIG. 5A compared to the other images (FIGS. 5B-5E) depicting impregnated scaffolds without cells. As the percentage of rhamnolipids increased, the porosity of the scaffold remained relatively similar to the control. […] Visually, the hDFn cells appeared to have been able to adhere and colonize onto impregnated scaffolds which could be further explored to better understand the cytocompatibility of rhamnolipids and if their morphology is influenced by the concentration of the surfactant. PrestoBlue™ and CyQUANT™ Direct Assay. The PrestoBlue™ and CyQUANT™ Direct assays were used to determine the cellular compatibility of hDFn cells when in the presence of rhamnolipids. The PrestoBlue™ assay is a resazurin-based solution when upon entering a living cell, the reagent is reduced to resorufin which is red in color and fluorescent. The overall health of the cell can be observed by changes in fluorescence and subsequently absorbance. […] The CyQUANT™ Direct assay is a cell-permeant green nucleic acid stain that is combined with a masking dye reagent. The masking dye stops the staining of non-viable cells or cells with compromised cell membranes, resulting in only the viable cells being stained. The CyQUANT™ Direct assay measures proliferation as well as membrane integrity. The data was evaluated using GraphPad Prism to run a one-way ANOVA.

[3] = tested on: hDFn cells; test: CyQUANT Direct assay, DNA content of living cells; assay type: cell-based, human; settings: vs control
Protocol: as §2, §1, §3

[4] = tested on: Human dermal neonatal fibroblasts (hDFn); test: Rhamnolipid vs. thioglycolipid comparative scratch assay; assay type: cell-based; settings: 6.25-50 μM, over 24 hours, particularly at the 4-hour and 8-hour time marks, FIGS. 9, 10A-10B
Protocol: Rhamnolipid vs. Thioglycolipid Comparative Scratch Assays. Human dermal neonatal fibroblasts (hDFn) were seeded in 3×12-well plates at 10,000 cell/cm^2. Media (Dulbecco's Modified Eagle Medium (DMEM)) was changed every 48 hours. Plates were imaged every 4 hours for 24 hours. Plates were analyzed via MATLAB® and RStudio®.

## CCCCCCC[C@H](CC(=O)O)OC(=O)C[C@@H](CCCCCCC)O[C@@H]1O[C@@H](C)[C@H](O)[C@@H](O)[C@H]1O [rhamnolipids, Rha-C10-C10]
[1]; 24 hours post-wound, across the different treatments (considered closed)
  mean percent closure: no statistically significant difference
[1]; absence of UN, high dose of rhamnolipids (50 μM), 12 hours post-wound, vs control, Tukey's p=0.001
  cellular migration (percent closure): statistically significant increase
[1]; absence of UN, low concentration of rhamnolipids (6.25 μM), vs control
  mean percent closure: no statistically significant difference
[1]; hDFn exposed to 0.1 μM UN + 50 μM rhamnolipids, 12 hours post-wound, vs control, p-value=0.021
  percent closure (migration rate): statistically significant increase
[1]; hDFn exposed to 1.0 μM UN + 6.25 μM rhamnolipids, 12 hours post-wound, p-value=0.012
  percent closure (migration rate): statistically significant increase
[1]; hDFn exposed to 1.0 μM UN + 50 μM rhamnolipids, 12 hours post-wound, vs control, p-value<0.001
  percent closure (migration rate): statistically significant increase
[1]; hDFn exposed to 10 μM UN + 50 μM rhamnolipids, 12 hours post-wound, vs control, p-value=0.009
  percent closure (migration rate): statistically significant increase
[2]; 6.25 μM rhamnolipids, 24 hours, n=6 (FIG. 7A), Tukey's p<0.001
  metabolic activity (RFU): statistically significant increase
[2]; 6.25 μM rhamnolipids, n=12 (FIG. 8A), Tukey's p<0.001
  metabolic activity (RFU): statistically significant increase
[2]; 50 μM rhamnolipids, 24 hours, n=6 (FIG. 7A), Tukey's p<0.001
  metabolic activity (RFU): statistically significant increase
[2]; 50 μM rhamnolipids, n=12 (FIG. 8A), Tukey's p<0.001
  metabolic activity (RFU): statistically significant increase
[2]; maximum concentration of rhamnolipids (100 μM), n=12 (FIG. 8A)
  metabolic activity (RFU): statistically significant decrease
[3]; 100 μM rhamnolipids, n=12 (FIG. 8B)
  cellular DNA content (RFU): statistically significant decrease
[3]; high concentration of rhamnolipids (50 μM), 24 hours, n=6 (FIG. 7B)
  living DNA content (RFU): no statistically significant difference
[3]; high concentration of rhamnolipids (50 μM), n=12 (FIG. 8B)
  living DNA content (RFU): no statistically significant difference
[3]; low concentration of rhamnolipids (6.25 μM), 24 hours, n=6 (FIG. 7B), Tukey's p<0.001
  cellular DNA content (RFU): statistically significant increase
[3]; low concentration of rhamnolipids (6.25 μM), n=12 (FIG. 8B)
  living DNA content (RFU): no statistically significant difference
[4]
  wound healing (percent closure) compared with thioglycolipid compositions: faster healing
